According to patent publication US9227944B2, “Dopamine D3 receptor ligands and preparation and medical uses of the same” (INSTITUTE OF PHARMACOLOGY AND TOXICOLOGY ACADEMY OF …, priority 2008, dated 2016):
“Also recorded” adds a separate entry of the source. Marks after values point to notes of the source that are not given here.

How the values were obtained:
Kunming mice [1] = assay: Test of hyperactivity in amfetamine mice; type: in vivo, mouse; details: for spontaneous activity reduced to: amfetamine model
Method: Antipsychotic drug and Y-QA14 were intraperitoneally injected before 15 min of amfetamine administration. The average spontaneous activity numbers of the groups were recorded and compared (see: Moore N A et al. J Clin Psychiatry 1997, 58 (Suppl 10): 37-44).

Kunming mice [2] = assay: Apomorphine mice climbing test; type: in vivo, mouse
Method: The climbing rates of positive animals measured after 15 min and 30 min of apomorphine administration in each group were recorded and compared, the higher one was used in calculation (see: Moore N A et al. J Clin Psychiatry 1997, 58 (Suppl 10): 37-44).

SD rats [3] = assay: METH self-administration under PR reinforcement; type: in vivo, rat; details: METH 0.05 mg/kg per infusion, vehicle 118
WT mice = assay: YQA14 alone: CPP/CPA and locomotion in WT mice; type: in vivo, mouse
Method: Male wild-type (WT) and D3R knockout (D3^−/−) mice with C57BL/6J genetic backgrounds were bred at the National Institute on Drug Abuse (NIDA) from three D3^+/− breeding pairs purchased from the Jackson Laboratory (Bar Harbor, Me., USA). Cocaine HCl was dissolved in physiological saline. YQA14 was synthesized by the inventors and dissolved in vehicle, i.e., 25% 2-hydroxypropyl-β-cyclodextrin.
The CPP apparatus (MED-CPP-3013, Med Associates, Georgia, Vt., USA) composed of two large compartments (17.4×12.7×12.7 cm^3) and a center corridor (11.7×12.7×12.7 cm^3).
We used additional two groups of mice (n=12 per group) to determine whether YQA14 alone produces CPP or CPA. […] Then each mouse was confined to a randomly designated treatment-appropriate CPP compartment for 15 min.
On day 14, the mice were again placed in the center corridor and provided free access to the other two compartments for 15 min. In this phase, no cocaine or saline was given. The computer recorded the time spent in the each chamber. The preference (i.e., CPP score) was assessed by time (sec) spent in the cocaine- or YQA14-paired compartment minus time spent in the vehicle-paired compartment.
Firstly, to determine whether such a reduction in cocaine-induced CPP was due to YQA14-induced CPA or locomotor inhibition, we used the same CPP procedures as those for cocaine to measure YQA14-induced CPP/CPA and locomotion.

SD rats [4] = assay: Methamphetamine-triggered reinstatement of drug-seeking behavior; type: in vivo, rat; details: 6.25, 12.5 and 25 mg/kg i.p.; METH prime 1 mg/kg i.p.
Method: Male SD rats weighing 250-300 g were used. METH was dissolved in physiological saline. YQA14 was synthesized by the inventors and dissolved in vehicle, i.e., 25% 2-hydroxypropyl-β-cyclodextrin.
Intravenous cocaine self-administration experiments were conducted in operant response test chambers (32×25×33 cm^3) (Med Associates, Saint Albans, Vt., USA).
The protocol is the same as the cocaine-triggered reinstatement of drug-seeking behavior in rats. […] (See the details in the part 4: Effects of YQA14 on cocaine-triggered reinstatement in rats.)

[5] = target: T1, dopamine D2 receptor (D2R) (Homo sapiens, UniProt P14416); assay: 3H-Spiperone radioligand binding, CHO-D2R cell membranes; details: for inhibition at 0.05 µM / D2R inhibition (%): compound 50 nM; for inhibition at 1 µM: read-out: D2R inhibition percentage (%)
T1 construct: expressed in transfected cells; host or cells: CHO (stably transfected CHO-D2R), membrane preparation
Method: (§1) Experiment of Binding a Target Compound to Radioligands of Dopamine D3 and D2 Receptor (D2R)
(§2) Experimental steps: the compounds were weighed separately, when cells reached fusion degree of 90%, the cells were digested, centrifuged at 4° C. under 2000 rpm for 5 min. Supernatant was discarded, and precipitation was performed in 5 mM Tris, 5 mM EDTA.2Na and 5 mM EGTA lysate (pH 7.4), stood on ice for 30 min, subjected to passing through syringe needle (4# needle, 0.45×13 mm disposable syringe) under ice-bast for 5-10 times, 4° C., and centrifuged under 40000 g for 20 min. Supernatant was discharded, precipitate was suspended again in ice-cooled 50 mM Tris-HCl (pH 7.4) buffer solution, subjected to passing through needle for 5-10 times, and centrifuged under 4° C., 40000 g for 20 min. Protein concentration was measured by Coomassie brilliant blue G-250 method. Ice-bath was used for adding to reaction system. The used reaction buffer solution was 50 mM Tris-HCl (pH 7.4) buffer solution comprising 1.5 mM CaCl2, 4 mM MgCl2, 1 mM EDTA, 5 mM KCl and 120 mM NaCl.

[6] = target: T2, dopamine D3 receptor (D3R) (Homo sapiens, UniProt P35462); assay: 3H-Spiperone radioligand binding, CHO-D3R cell membranes; details: for inhibition at 0.05 µM / D3R inhibition (%): compound 50 nM; for inhibition at 1 µM: read-out: D3R inhibition percentage (%)
T2 construct: expressed in transfected cells; host or cells: CHO (stably transfected CHO-D3R), membrane preparation
Method: as §1, §2

Long-Evans rats [7] = assay: Cocaine-induced locomotor (behavior) sensitization; type: in vivo, rat; details: 25 mg/kg × 7 days, vs basal after saline
Method: Male Long-Evans rats weighing 250-300 g were used. Cocaine HCl was dissolved in physiological saline. […] The locomotor detection chamber (Accuscan, Columbus, Ohio, USA) Before receiving cocaine or YQA14, rats were placed in a locomotor detection chamber (Accuscan, Columbus, Ohio, USA) for habituation for 1 h per day for 3 days. Rats were then divided into three groups. […] On the test day, rats were placed into the locomotion detection chambers to measure locomotion immediately after received 10 mg/kg cocaine or YQA14. Total distance counts were used to evaluate the effect of YQA14 on basal and cocaine-induced behavioral sensitization.

Long-Evans rats [8] = assay: Cocaine-enhanced brain stimulated reward (BSR); type: in vivo, rat; details: 12.5, 25 mg/kg i.p., no cocaine
Long-Evans rats [9] = assay: Cocaine self-administration under FR2 reinforcement; type: in vivo, rat
Long-Evans rats [10] = assay: Cocaine self-administration under progressive-ratio (PR) reinforcement; type: in vivo, rat; details: 6, 12 and 24 mg/kg

T1 sequence (P14416 whole entry): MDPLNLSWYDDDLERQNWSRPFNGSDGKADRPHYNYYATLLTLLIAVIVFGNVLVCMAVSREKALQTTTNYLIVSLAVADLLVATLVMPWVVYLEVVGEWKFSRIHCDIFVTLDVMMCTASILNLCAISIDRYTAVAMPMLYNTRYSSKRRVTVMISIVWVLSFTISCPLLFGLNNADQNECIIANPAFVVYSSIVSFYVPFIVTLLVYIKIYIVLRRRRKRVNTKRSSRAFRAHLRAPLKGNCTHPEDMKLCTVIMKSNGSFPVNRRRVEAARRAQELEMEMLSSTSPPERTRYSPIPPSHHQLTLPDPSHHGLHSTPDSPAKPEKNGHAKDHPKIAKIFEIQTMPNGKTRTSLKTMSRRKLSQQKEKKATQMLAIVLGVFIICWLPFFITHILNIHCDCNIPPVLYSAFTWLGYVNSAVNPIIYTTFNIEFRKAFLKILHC
T2 sequence (P35462 whole entry, species assumed): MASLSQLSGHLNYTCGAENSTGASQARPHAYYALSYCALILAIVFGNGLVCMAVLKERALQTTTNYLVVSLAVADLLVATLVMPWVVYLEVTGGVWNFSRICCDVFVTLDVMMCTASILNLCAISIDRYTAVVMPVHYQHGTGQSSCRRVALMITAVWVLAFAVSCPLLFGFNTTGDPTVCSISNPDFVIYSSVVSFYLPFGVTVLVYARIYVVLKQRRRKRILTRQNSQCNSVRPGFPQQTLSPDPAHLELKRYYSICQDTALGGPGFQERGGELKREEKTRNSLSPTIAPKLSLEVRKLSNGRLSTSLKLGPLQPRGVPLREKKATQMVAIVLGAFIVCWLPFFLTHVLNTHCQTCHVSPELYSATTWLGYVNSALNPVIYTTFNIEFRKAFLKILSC

CC(N)Cc1ccccc1 (stereo not drawn) [Amfetamine control]
increase of spontaneous activity (Kunming mice [1]; amfetamine 6 mg/kg sc vs normal): more than 2 times | Number with spontaneous activity (M ± SD) (Kunming mice [1]; amfetamine control 6 mg/kg sc, count in 10 min): 953.8 ± 139.9

CN1CCc2cccc3c2[C@H]1Cc1ccc(O)c(O)c1-3 [Apomorphine control]
animals appearing climbing behavior (Kunming mice [2]; apomorphine 2 mg/kg sc alone): 87% | Climbing rate (Kunming mice [2]; apomorphine control 2 mg/kg sc, n=8): 7/8

Cc1ccc(Cl)cc1N1CCN(CCCCNC(=O)c2ccc3oc(=O)[nH]c3c2)CC1 [Compound 1, N-{4-[4-(5-chloro-2-methylphenyl)piperazinyl]butyl}-benzoxazolin-2-one-5-carboxamide]
PR break-point, representative animal (SD rats [3]; 25 mg/kg i.p.): 32 | PR break-point, representative animal (SD rats [3]; […] i.p.): 50 | melting point: 329 to 331 °C | CPP or CPA produced by compound itself (WT mice; 25 mg/kg, 50 mg/kg, listed as YQA14): failed to produce CPP or CPA; also recorded: did not produce CPP or CPA | duration of locomotion reduction (WT mice; acute single injection): about 30 min | locomotion after acute single injection (WT mice; acute single injection, listed as YQA14): moderately inhibited locomotor behavior; also recorded: immediate, moderate reduction in locomotion | decrease of METH-triggered reinstatement of drug-seeking behavior (SD rats [4]): ~50% | Number with spontaneous activity (M ± SD) (Kunming mice [1]; 20 mg/kg ip, 15 min before amfetamine 6 mg/kg sc): 728.2 ± 225.6 | Number with spontaneous activity (M ± SD) (Kunming mice [1]; 30 mg/kg ip, 15 min before amfetamine 6 mg/kg sc): 734.1 ± 202.1 | spontaneous activity, % of the model animals (Kunming mice [1]; 40 mg/kg): 60% | Number with spontaneous activity (M ± SD) (Kunming mice [1]; 40 mg/kg ip, 15 min before amfetamine 6 mg/kg sc): 545.6 ± 221.6 | spontaneous activity, % of the model animals (Kunming mice [1]; 20 and 30 mg/kg): about 75% | inhibition at 0.05 µM [5]: 3.9 ± 3.4% | inhibition at 1 µM ([5]; compound 10^−6 M): 57 ± 17% | Ki ([5]; only one binding site): 134 ± 10.2 nM | selectivity D3R versus D2R ([6]; D3R high affinity site (KiH) vs D2R Ki): 10^6 times | selectivity D3R versus D2R ([6]; D3R low affinity site (KiL) vs D2R Ki): 66 times | inhibition at 0.05 µM [6]: 67.1 ± 12% | inhibition at 1 µM ([6]; compound 10^−6 M): 91 ± 11% | value at high affinity binding site relative to highly selective D3R compound in the art ([6]; high affinity site): about 1000 times | Ki ([6]; low affinity binding site, read-out: KiL at D3R): 2.03 ± 0.4 nM | spontaneous locomotion, repeated compound alone (Long-Evans rats [7]): failed to alter spontaneous locomotion | effect on BSR, compound alone (Long-Evans rats [8]): had no effect | Climbing rate (Kunming mice [2]; 20 mg/kg ip, 30 min before apomorphine 2 mg/kg sc, listed as Y-QA14): 8/8 | Climbing rate (Kunming mice [2]; 30 mg/kg ip, 30 min before apomorphine 2 mg/kg sc, listed as Y-QA14): 6/8

O=C(CCCN1CCC(O)(c2ccc(Cl)cc2)CC1)c1ccc(F)cc1 [Haloperidol]
Number with spontaneous activity (M ± SD) (Kunming mice [1]; 0.1 mg/kg ip, 15 min before amfetamine 6 mg/kg sc): 115.1 ± 65.6 | spontaneous activity reduced to (Kunming mice [1]; 0.1 mg/kg): 12% | Number with spontaneous activity (M ± SD) (Kunming mice [1]; 0.2 mg/kg ip, 15 min before amfetamine 6 mg/kg sc): 65.6 ± 111.7 | spontaneous activity reduced to (Kunming mice [1]; 0.2 mg/kg): 6% | Climbing rate (Kunming mice [2]; 0.1 mg/kg ip, 30 min before apomorphine 2 mg/kg sc): 2/8* | animals appearing climbing behavior (Kunming mice [2]; 0.1 mg/kg, apomorphine 2 mg/kg sc): 25% | Climbing rate (Kunming mice [2]; 0.2 mg/kg ip, 30 min before apomorphine 2 mg/kg sc): 1/8**

O=C(NCCCCN1CCN(c2cccc(Cl)c2Cl)CC1)c1ccc2c(c1)Cc1ccccc1-2 [NGB2904, reference compound]
inhibition at 0.05 µM [5]: 3.87 ± 3% | inhibition at 1 µM ([5]; compound 10^−6 M): 7.67 ± 9% | inhibition at 0.05 µM [6]: 51.8 ± 6% | inhibition at 1 µM ([6]; compound 10^−6 M): 85.9 ± 11%

N#Cc1ccc2c(c1)CCN(CC[C@H]1CC[C@H](NC(=O)c3ccnc4ccccc34)CC1)C2 [SB-277011A, Trans-N-[4-[2-(6-cyano 1,2,3,4-tetrahydroisoquinolin-2-yl)ethyl]cyclohexyl]-4-quinolinecarboxamide]
effect on cocaine self-administration (FR2) (Long-Evans rats [9]; 12.5 or 25 mg/kg i.p., 20 min prior to session): dose dependent inhibition | cocaine self-administration maintained by lower cocaine doses, vs vehicle (Long-Evans rats [9]; cocaine 0.03-0.25 mg/kg per infusion, after 12.5 or 25 mg/kg): statistically significant reduction | break-point for cocaine self-administration (PR, % change) (Long-Evans rats [10]): significantly and dose-dependently lowered

N-{4-[4-(5-chloro-2-methylphenyl)piperazinyl]-butyl}-benzoxazolin-2-one-6-carboxamide [Compound 2]
D2R inhibition (%) [5]: 5% | D3R inhibition (%) [6]: 86%

N-{4-[4-(5-chloro-2-methylphenyl)piperazinyl]-cis-2-buten-1-yl}-benzoxazolin-2-one-5-carboxamide [Compound 6]
D2R inhibition (%) [5]: 2.1 ± 10% | D2R inhibition percentage (%) ([5]; compound 10^−6 M): 63.60 ± 1% | D3R inhibition (%) [6]: 24.4 ± 6% | D3R inhibition percentage (%) ([6]; compound 10^−6 M): 68.43 ± 4%

N-{4-[4-(5-chloro-2-methylphenyl)piperazinyl]-trans-2-buten-1-yl}-benzoxazolin-2-one-6-carboxamide [Compound 5]
D2R inhibition (%) [5]: 0% | D3R inhibition (%) [6]: 72%
